Experimental data published in patent US20110015208A1, “PHARMACEUTICAL COMPOSITIONS CONTAINING DOPAMINE RECEPTOR LIGANDS AND METHODS OF TREATMENT USING DOPAMINE RECEPTOR LIGANDS” (priority 2007, published 2011).
“Also recorded” adds a separate entry of the source. Where a name gives a salt, the structure may show the parent alone.

Columns and labels:
[1] = system: basal locomotor activity of mice; assay: Open field, basal locomotor activity of mice (Example 4A); assay type: in vivo, mouse; settings: for Total Distance Traveled [mean ± SEM]: test condition water, 60 min pretreatment
Procedure: (§1) Cariprazine hydrochloride and escitalopram oxalate were evaluated for anti-manic effects using the amphetamine/chlordiazepoxide (AMPH/CDP) hyperactivity test.
Male C57B1/6J mice from Jackson Laboratories (Bar Harbor, Me.) were used in this study. Mice were received at 6-weeks of age. Upon receipt, mice were assigned unique identification numbers (tail marked) and were group housed with 4 mice/cage. All animals remained housed in groups of four during the remainder of the study. All mice were acclimated to the colony room for at least two weeks prior to testing and were subsequently tested at an average age of 8 weeks of age. During the period of acclimation, mice were examined on a regular basis, handled, and weighed to assure adequate health and suitability. Mice were maintained on a 12/12 light/dark cycle. The room temperature was maintained between 20 and 23° C. with a relative humidity maintained between 30% and 70%. Chow and water were provided ad libitum for the duration of the study. In each test, animals were randomly assigned across treatment groups.
(§2) Distance traveled is measured by consecutive beam breaks.
(§3) Data was analyzed by analysis of variance (ANOVA) followed by Fisher PLSD post-hoc analysis when appropriate. An effect was considered significant if p<0.05. Outliers that fell above and below two standard deviations from the mean were removed from the final analysis.

[2] = system: d-amphetamine/chlordiazepoxide mixture (AMPH/CDP)-induced hyperactivity in mice; assay: d-Amphetamine/chlordiazepoxide (AMPH/CDP) hyperactivity test (Example 4B); assay type: in vivo, mouse; settings: for Total Distance Traveled [mean ± SEM]: test condition AMPH/CDP
Procedure: as §1
(§4) Male C57B1/6J mice (8 weeks old) from Jackson Laboratories (Bar Harbor, Me.) were used in this study. Upon receipt, mice were assigned unique identification numbers (tail marked) and were group housed (4 mice/cage) in OPTI mouse ventilated cages. All animals remained housed in groups of four during the remainder of the study. During the period of acclimation, mice were examined on a regular basis, handled, and weighed to assure adequate health and suitability. Mice were maintained on a 12/12 light/dark cycle. The room temperature was maintained between 20 and 23° C. with a relative humidity maintained between 30% and 70%. Chow and water were provided ad libitum for the duration of the study. In each test, animals were randomly assigned across treatment groups.
d-Amphetamine sulfate (Sigma, 4.0 mg/kg) and chlordiazepoxide (CDP; Sigma, 2.5 mg/kg) were dissolved in sterile water and were administered intraperitoneally at a dose volume of 10 ml/kg.
as §2, §3

[3] = system: basal locomotor activity of mice; assay: Open field, basal locomotor activity of mice (Example 4B); assay type: in vivo, mouse; settings: test condition water
Procedure: as §1, §4, §2, §3

[4] = system: chronic mild stress (CMS) model of depression; assay: Chronic mild stress (CMS) model of depression, sucrose consumption (Example 3); assay type: in vivo, rat; settings: for sucrose consumption in stressed animals compared to vehicle: 5 weeks; for time until increase in sucrose intake reached statistical significance vs Week 0: stressed animals
Excerpt: Similar to the study described in Example 2, additional studies were undertaken to further evaluate the antidepressant effect of cariprazine hydrochloride, administered alone, or in combination with escitalopram oxalate, in a chronic mild stress model of depression
In the chronic mild stress (CMS) model, rats subjected to a variety of mild stressors for a prolonged period of time show a substantial decrease in their responsiveness to rewarding stimuli. This deficit is usually monitored by a decrease in the consumption of a 1% sucrose solution, but can also be seen in other tests, such as place preference conditioning or intracranial self-stimulation. The subsensitivity to reward appears to reflect anhedonia (inability to experience pleasure), which is a core symptom of major depressive disorders. Clinically approved antidepressants have shown activity in this animal model by reversing the effects of CMS on sucrose consumption. See, e.g., Sanchez C, Gruca P, Papp M, Behavioural Pharmacology 14, 465-470, 2003.
Male Wistar rats (Charles River, Germany) were brought into the laboratory two months before the start of the experiment. Except as described below, the animals were singly housed with food and water freely available, and were maintained on a 12-h light/dark and in a constant temperature (22±2° C.) and humidity (50±5%) conditions.
The animals were first trained to consume a 1% sucrose solution; training consisted of nine 1 h baseline tests in which sucrose was presented, in the home cage, following 14 h food and water deprivation. The sucrose intake was measured by weighing pre-weighed bottles containing the sucrose solution, at the end of the test. Subsequently, sucrose consumption was monitored, under similar conditions, at weekly intervals throughout the whole experiment.
On the basis of their sucrose intakes in the final baseline test, the animals were divided into two matched groups. One group of animals was subjected to the chronic mild stress procedure for a period of 7 consecutive weeks. Each week of stress regime consisted of: two periods of food or water deprivation, two periods of 45 degree cage tilt, two periods of intermittent illumination (lights on and off every 2 h), two periods of soiled cage (250 ml water in sawdust bedding), one period of paired housing, two periods of low intensity stroboscopic illumination (150 flashes/min), and three periods of no stress. All stressors were 10-14 h of duration and were applied individually and continuously, day and night. Control animals were housed in separate rooms and had no contact with the stressed animals. They were deprived of food and water for 14 h preceding each sucrose test, but otherwise food and water were freely available in the home cage.

[5] = cariprazine hydrochloride 0.10 mg/kg oral
[6] = cariprazine HCl 0.03 mg/kg oral
[7] = cariprazine HCl 0.10 mg/kg oral
[8] = escitalopram oxalate 0.10 mg/kg oral
[9] = escitalopram oxalate 0.50 mg/kg oral
[10] = escitalopram oxalate 2 mg/kg IP once daily

## CN(C)C(=O)N[C@H]1CC[C@H](CCN2CCN(c3cccc(Cl)c3Cl)CC2)CC1 [Cariprazine hydrochloride, trans-4-{2-[4-(2,3-dichlorophenyl)-piperazin-1-yl]-ethyl}-N,N-dimethylcarbamoyl-cyclohexylamine hydrochloride]
[1]; [5]
  effect on basal locomotor activity compared to water: trend toward a significant decrease
[1]; cariprazine hydrochloride 0.30 mg/kg oral
  effect on basal activity compared to water: significantly decreased
[1]; 0.03 mg/kg oral
  Total Distance Traveled [mean ± SEM]: 4056 ± 427 cm/60 min
[1]; 0.10 mg/kg oral
  Total Distance Traveled [mean ± SEM]: 1726 ± 112 cm/60 min
[1]; 0.30 mg/kg oral
  Total Distance Traveled [mean ± SEM]: 917 ± 73 cm/60 min
[2]; [5]
  effect on enhanced locomotor activity produced by the CDP+amphetamine mixture: significantly attenuated
[2]; [6]
  Total Distance Traveled [mean ± SEM]: 32628 ± 2510 cm/60 min
[2]; [7]
  Total Distance Traveled [mean ± SEM]: 22594 ± 2838 cm/60 min
[3]; [6]
  Total Distance Traveled [mean ± SEM]: 4013 ± 343 cm/60 min
[3]; [7]
  Total Distance Traveled [mean ± SEM]: 2697 ± 259 cm/60 min
[4]; cariprazine hydrochloride 0.01 mg/kg alone, IP once daily
  sucrose consumption in stressed animals compared to vehicle: significantly decreased
[4]; cariprazine hydrochloride 0.03 mg/kg alone, IP once daily
  sucrose consumption in stressed animals compared to vehicle: gradually increased
[4]; cariprazine hydrochloride 0.03 mg/kg alone, IP once daily, hydrochloride
  time until increase in sucrose intake reached statistical significance vs Week 0: after four weeks of treatment; also recorded: three weeks
[4]; cariprazine hydrochloride 0.065 mg/kg IP once daily
  sucrose consumption in stressed animals compared to vehicle: gradually increased
[4]; cariprazine hydrochloride 0.065 mg/kg IP once daily, hydrochloride
  time until increase in sucrose intake reached statistical significance vs Week 0: after the first week of treatment; also recorded: following the first week of administration
[4]; cariprazine hydrochloride alone, full recovery at the end of treatment period
  magnitude of action relative to escitalopram oxalate: comparable to that of escitalopram oxalate

## CN(C)CCC[C@@]1(c2ccc(F)cc2)OCc2cc(C#N)ccc21 [Escitalopram oxalate, 1-[3-(dimethyl-amino)propyl]-1-(p-fluorophenyl)-5-phthalancarbonitrile]
[1]; 0.50 mg/kg oral
  Total Distance Traveled [mean ± SEM]: 4435 ± 389 cm/60 min
[1]; 5.0 mg/kg oral
  Total Distance Traveled [mean ± SEM]: 6499 ± 445 cm/60 min
[2]; escitalopram oxalate alone, either dose tested (0.10 and 0.50 mg/kg oral)
  effect on mixture-induced locomotor activity: no significant effect
[2]; [8]
  Total Distance Traveled [mean ± SEM]: 39700 ± 3477 cm/60 min
[2]; [9]
  Total Distance Traveled [mean ± SEM]: 40881 ± 3123 cm/60 min
[3]; [8]
  Total Distance Traveled [mean ± SEM]: 5551 ± 382 cm/60 min
[3]; [9]
  Total Distance Traveled [mean ± SEM]: 5238 ± 242 cm/60 min
[4]; [10]
  sucrose consumption in stressed animals compared to vehicle: gradually increased; also recorded: fully reversed
  time until increase in sucrose intake reached statistical significance vs Week 0: after three weeks of treatment
